Experiments:
[1] = target: T1, TGFBIp611-633 N622K peptide (Homo sapiens, UniProt Q15582, N622K); experiment: Circular Dichroism assay, inhibition of amyloid fibrillation; type: biochemical; settings: TGFBIp-N622K, final time point, read-out: % Inhibition at final time point, CD
T1 construct: The TGFBIp^611-633 N622K peptides were treated with 200 mM and 320 mM of taurine; purchased Synpeptide Co Ltd, Shanghai, China; host or cells: synthetic peptide
Protocol: Circular Dichroism (CD) spectroscopy was performed to study the changes in the secondary structure of the peptides. The TGFBIp^611-633 G623R peptides were treated with 200 mM and 320 mM of taurine in PBS buffer at pH 7.0 for 24 h, 48 h and 72 h, respectively. While the TGFBIp^611-633 N622K peptides were treated with 200 mM and 320 mM of taurine in PBS buffer at pH 7.0 for 72 h, 96 h, 120 h, 144 h, 192 h, 216 h, and 240 h, respectively. The treatment solutions were studied by far UV-CD assay.

[2] = target: T2, TGFBIp611-633 G623R peptide (Homo sapiens, UniProt Q15582, G623R); experiment: ThT fluorescence microscopy, inhibition of amyloid fibrillation
T2 construct: The 23-amino acid long peptide (TGFBIp 611-633 c.623 G>R) from the 4th FAS1 domain; purchased Synpeptide Co Ltd, Shanghai, China; host or cells: synthetic peptide
T2 sequence (Q15582 611-633 G623R limits assumed): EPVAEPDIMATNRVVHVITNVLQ
Protocol: The inhibitory effects of the four osmolytes on amyloid fibrillation of the TGFBIp^611-633 G623R peptide were investigated further by fluorescence microscopy after ThT staining. The peptide samples collected at various time points above were incubated ThT at a ratio of 1:1 ratio in the dark for 30 minutes to obtain solutions for fluorescence microscopy. 25 μl of the solutions were taken on to slides with coverslips and visualized under a fluorescent microscope (Axiolmager Z1, Carl Zeiss, Oberkochen, Germany).
The inhibition effect of taurine on the amyloid fibrillation was investigated further by fluorescence microscopy after ThT staining. The samples collected at the various time points above were incubated ThT at a ratio of 1:1 ratio in the dark for 30 minutes to obtain solutions for fluorescence microscopy. 25 μl of the solutions were taken on to slides with coverslips and visualized under a fluorescent microscope.

T1 sequence (Q15582 611-633 N622K limits assumed): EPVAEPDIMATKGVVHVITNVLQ

inhibition at 200000 µM ([1]; 200 mM): 39%
inhibition at 320000 µM ([1]; 320 mM): 66%
fluorescent intensity under microscope ([2]; 200 mM and 320 mM): reduction in fluorescent intensity
SMILES: NCCS(=O)(=O)O [Taurine, taurine]
ThT fluorescence images, fluorescent spots ([2]; 200 mM, 24 h to 72 h, versus PBS control): relatively smaller fluorescent spots even after 24 h

Source: patent US20220265591A1, “USE OF AN OSMOLYTE IN MANUFACTURE OF A MEDICAMENT FOR TREATMENT OF OCULAR DISORDERS” (SINGAPORE HEALTH SERVICES PTELTD, priority 2019, published 2022)
